Results as given in US8263587B2, “Benzoxazepine compounds, their preparation and use” (Piramal Healthcare Limited, priority 2006, dated 2012).

Legend:
[1] = system: isolated rat hepatocytes; experiment: Inhibition of gluconeogenesis in isolated rat hepatocytes; format: cell-based; settings: 5 mM fructose
Procedure: Assay protocol for determination of inhibition of gluconeogenesis by compounds in isolated rat hepatocytes:
Hepatocytes were isolated by collagenase digestion of perfused livers from male Wistar rats fasted overnight according to the method described in J. Cell. Science., 56, 233-244, 1982, the disclosure of which is incorporated by reference for the teaching of the method.
(§1) The assay was done in three groups: basal, control and test. The test compounds were added to the vials at different concentrations. The isolated hepatocytes were added to the vials and they were incubated at 37° C. for 15 min. After 15 min, 5 mM fructose (precursor for gluconeogenesis) was added to the control and test group. Vials were again incubated at 37° C. for one hour with constant shaking (80 cycles/min.). Incubation was terminated by centrifuging the reaction mixture at 3000 rpm for 5 min. The supernatant was used for determination of both glucose and lactate dehydrogenase (LDH) (Table 1).
An active compound would decrease the amount of glucose formed, which is read at 520 nm by glucose oxidase-peroxidase method.

[2] = system: isolated rat hepatocytes; experiment: LDH leakage from isolated rat hepatocytes; format: cell-based
Procedure: as §1
The LDH activity is measured, by the method described in Meth. Enz. Ana. 3, 118-125, 1984, the disclosure of which is incorporated by reference for the teaching of the method, as the amount of pyruvate consumed by continuously monitoring the decrease in absorbance due to oxidation of NADH (Nicotinamide Adenine Dinucleotide-reduced form) at 339 nm.

[3] = molecular target: T1, hPPARγ (Homo sapiens, UniProt P37231); experiment: hPPARγ transactivation in cell-based assay (CV-1 cells, luciferase); set-up: Emax: dose or concentration left out as unconfirmed; settings: for PPARγ (Fold activation at 1 μM): CV-1 cells transfected with hPPARγ
T1 construct: expressed in transfected cells; host or cells: CV-1 cells
T1 sequence (P37231 1-505): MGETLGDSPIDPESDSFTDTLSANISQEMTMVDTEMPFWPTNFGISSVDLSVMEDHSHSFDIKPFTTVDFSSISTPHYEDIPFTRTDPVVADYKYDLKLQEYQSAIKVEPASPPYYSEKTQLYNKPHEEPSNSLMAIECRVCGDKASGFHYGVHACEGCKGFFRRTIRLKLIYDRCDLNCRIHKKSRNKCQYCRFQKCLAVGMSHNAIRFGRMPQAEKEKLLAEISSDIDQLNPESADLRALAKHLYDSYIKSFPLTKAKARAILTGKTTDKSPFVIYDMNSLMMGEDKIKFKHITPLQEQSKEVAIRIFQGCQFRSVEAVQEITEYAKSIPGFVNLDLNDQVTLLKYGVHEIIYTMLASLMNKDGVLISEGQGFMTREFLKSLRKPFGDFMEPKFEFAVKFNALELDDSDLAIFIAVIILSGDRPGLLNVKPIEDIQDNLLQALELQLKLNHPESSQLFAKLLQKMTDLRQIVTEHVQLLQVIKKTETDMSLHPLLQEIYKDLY
Procedure: (§2) Cell based transcription assay was employed to identify hPPAR γ/α agonists. CV-1 cells were maintained in MEM (minimum essential medium) containing 10% FBS (fetal bovine serum). Cells were seeded at a density of 80,000 cells/well in a 24-well plate one day prior to transfection. CV-1 cells were transiently transfected with hPPAR γ/α using Lipofectamine 2000. […] Receptor activation by ligands leads to activation of luciferase expression, which was measured after 15-16 h incubation. The cells were washed with PBS, lysed, and luciferase activity measured in a microplate luminometer. […] Both compounds were synthesized in-house. Maximum activation with the reference agonists was defined as 100%. Receptor activation by test compounds is presented as percentage of maximum activation caused by the respective reference agonists in Table 4(a), Table 4(b) and Table 4(c).

[4] = molecular target: T2, hPPARα (Homo sapiens, UniProt Q07869); experiment: hPPARα transactivation in cell-based assay (CV-1 cells, luciferase)
T2 construct: expressed in transfected cells; host or cells: CV-1 cells
T2 sequence (Q07869 1-468): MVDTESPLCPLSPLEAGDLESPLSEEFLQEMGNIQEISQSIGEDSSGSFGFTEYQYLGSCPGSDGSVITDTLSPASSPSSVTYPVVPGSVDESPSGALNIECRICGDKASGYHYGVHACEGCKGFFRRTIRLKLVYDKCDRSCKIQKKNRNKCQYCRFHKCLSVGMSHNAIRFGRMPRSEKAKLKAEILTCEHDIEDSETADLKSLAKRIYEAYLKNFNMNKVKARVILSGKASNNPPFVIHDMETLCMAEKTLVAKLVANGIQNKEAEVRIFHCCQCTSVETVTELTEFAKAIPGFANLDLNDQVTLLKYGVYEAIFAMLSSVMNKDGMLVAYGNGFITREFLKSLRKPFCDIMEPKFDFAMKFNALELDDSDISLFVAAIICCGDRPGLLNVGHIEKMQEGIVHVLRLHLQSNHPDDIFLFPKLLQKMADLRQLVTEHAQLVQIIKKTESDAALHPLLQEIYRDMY
Procedure: as §2

[5] = system: 3T3-L1 pre-adipocytes; experiment: Potentiation of insulin-stimulated lipogenesis in 3T3-L1 adipocytes; format: cell-based; settings: over insulin control = 1
Procedure: 3T3-L1 pre-adipocytes were grown to confluence in 25 ml culture flasks in DMEM (Dulbecco's Modified Eagle's Medium, with 25 mM glucose) containing 10% fetal calf serum (FCS) and antibiotics in a humidified atmosphere of 5% CO2 and 95% air at 37° C. The medium was changed every 2-3 days. The cells were trypsinised at confluency using 0.25% trypsin and transferred to another flask.
For the assay, cells were grown in 24 well plates. Induction of differentiation was done when the cells had grown to confluency with DMEM containing 5% FCS and supplemented with 0.5 mM IBMX (3-Isobutyl-1-methylxanthine), 0.5 μM DEX (dexamethasone) and 1 μg/ml insulin. […] The medium was changed three times, each at an interval of 2 days. On the day of termination of medium changes, lipogenesis assay was performed.
3T3-L1 cells were grown to confluency in 24 well plates. […] On the day of termination of the assay the cells were incubated in […] KRHB (Krebs-Ringer Hepes buffer) for 2 hr at 37° C. in a CO2 incubator. This was replaced with fresh KRHB with 0.1 mM glucose containing 100 nM insulin, test compound or insulin plus test compound. Lipogenesis was initiated by the addition of 20 μl of 50 μCi/ml [^3H]-D-Glucose to each well and incubation for 90 min at 37° C. in a CO2 incubator. The reaction was terminated by aspirating the medium from each well and washing the cells rapidly 3 times with ice-cold PBS (phosphate buffered saline). 500 μl of 0.2 N NaOH was added to lyse the cells. 450 μl was aliquoted into scintillation vials and scintillation cocktail added. The vials were read in Liquid Scintillation Counter. Results are expressed as fold activation of the standard or test compound over the control (Table 2).

[6] = system: STZ induced diabetic rats; experiment: Streptozotocin-induced diabetes in rats, blood glucose; format: in vivo, male Wistar rats; settings: for Percent reduction in blood glucose: STZ diabetic rats
Procedure: Diabetes was induced in male Wistar rats by intraperitoneal (i.p.) injection of streptozotocin (STZ) (60 mg/kg) dissolved in 0.05 M citrate buffer, pH 4.6. Plasma glucose levels were estimated 48 hours after STZ administration. […] The rats were divided into […] (n=8 in each group): the first (control) group consisted of untreated animals, the second group had diabetic animals and the third and fourth groups consisted of diabetic animals treated with the test compounds (50 and 100 mg/kg respectively). Test compounds were administered p.o. for 8 days to STZ induced diabetic rats (180-200 g). Blood glucose was measured on day 0, 3 and 8 (Table 3).

[7] = Rattus norvegicus, Hepatocyte, 100 μM, read-out: Gluconeogenesis (glucose production) % inhibition
[8] = one entry 'No leakage' for all concentrations tested of the compound (up to 100 μM)
[9] = CV-1, read-out: PPARγ activation as percentage of maximum activation by rosiglitazone
[10] = Rattus norvegicus, Hepatocyte, 10 μM, read-out: Gluconeogenesis (glucose production) % inhibition
[11] = Rattus norvegicus, Hepatocyte, 50 μM, read-out: Gluconeogenesis (glucose production) % inhibition
[12] = Rattus norvegicus, Hepatocyte, read-out: Gluconeogenesis (glucose production) % inhibition
[13] = 10 μM, isolated rat hepatocytes
[14] = 25 μM, isolated rat hepatocytes
[15] = 50 μM, isolated rat hepatocytes
[16] = 100 μM, isolated rat hepatocytes
[17] = with insulin, concentration not given

Structure (SMILES): O=C1NC(=O)C(Cc2ccc3c(c2)CN(c2nc4ccccc4o2)CCO3)S1 (centres unmarked) [Compound of Example 7, 5-(4-Benzooxazol-2-yl-2,3,4,5-tetrahydro-benzo[f][1,4]oxazepin-7-yl-methyl)-thiazolidine-2,4-dione]
- inhibition at 3 µM ([1]; Rattus norvegicus, Hepatocyte, 3 μM, read-out: Gluconeogenesis (glucose production) % inhibition): 12%
- inhibition at 30 µM ([1]; Rattus norvegicus, Hepatocyte, 30 μM, read-out: Gluconeogenesis (glucose production) % inhibition): 19%
- inhibition at 100 µM [1, 7]: 50%
- LDH % leakage [2, 8]: No
- PPARγ (Fold activation at 1 μM) [3]: 0.7 fold
- Emax at 1 µM [3, 9]: 9%
- PPARα (Fold activation at 20 μM) ([4]; 20 μM, CV-1 cells transfected with hPPARα): 1.5 fold
- Emax at 20 µM ([4]; CV-1, read-out: PPARα activation as percentage of maximum activation by Wy-14643): 47%

Structure (SMILES): O=C1NC(=O)C(=Cc2ccc3c(c2)CN(c2nc4ccccc4o2)CCO3)S1 [Compound of Example 6, 5-(4-Benzooxazol-2-yl-2,3,4,5-tetrahydro-benzo[f][1,4]oxazepin-7-ylmethylene)-thiazolidine-2,4-dione]
- Fold stimulation of insulin-stimulated lipogenesis ([5]; 10 μM with insulin): 1.4 fold

Structure (SMILES): O=C1NC(=O)C(Cc2ccc3c(c2)CN(c2ccccn2)CCO3)S1 (centres unmarked) [Compound of Example 4, 5-(4-Pyridin-2-yl-2,3,4,5-tetrahydro-benzo[f][1,4]oxazepin-7-yl-methyl)-thiazolidine-2,4-dione]
- inhibition at 10 µM [1, 10]: 27%
- inhibition at 50 µM [1, 11]: 35%
- inhibition at 100 µM [1, 7]: 57%
- LDH % leakage [2, 8]: No
- Fold stimulation of insulin-stimulated lipogenesis ([5]; 10 μM with insulin): 2 fold
- Fold stimulation of insulin-stimulated lipogenesis ([5]; 100 μM with insulin): 2.3 fold
- melting point: 180 to 181 °C

Structure (SMILES): CN(CCOc1ccc(CC2SC(=O)NC2=O)cc1)c1ccccn1 (centres unmarked) [Rosiglitazone, reference compound]
- inhibition at 5 µM ([1]; Rattus norvegicus, Hepatocyte, 5 μM, read-out: Gluconeogenesis (glucose production) % inhibition): 11%
- inhibition at 10 µM [1, 10]: 28%
- inhibition at 25 µM [1, 12]: 43%
- inhibition at 50 µM [1, 11]: 57%
- inhibition at 100 µM [1, 7]: 68%
- LDH % leakage ([2]; 5 μM, isolated rat hepatocytes): 9%
- LDH % leakage [2, 13]: 9%
- LDH % leakage [2, 14]: 10%
- LDH % leakage [2, 15]: 11%
- LDH % leakage [2, 16]: 15%

Structure (SMILES): O=C1NC(=O)C(=Cc2ccc3c(c2)CN(c2ccccn2)CCO3)S1 [Compound of Example 3, 5-(4-Pyridin-2-yl-2,3,4,5-tetrahydro-benzo[f][1,4]oxazepin-7-ylmethylene)-thiazolidine-2,4-dione]
- Gluconeogenesis (glucose production) % inhibition ([1]; 50 μM): 42%
- Gluconeogenesis (glucose production) % inhibition ([1]; 100 μM): 74%
- inhibition at 10 µM [1, 10]: 10%
- inhibition at 25 µM [1, 12]: 36%
- inhibition at 75 µM ([1]; Rattus norvegicus, Hepatocyte, 75 μM, read-out: Gluconeogenesis (glucose production) % inhibition): 51%
- LDH % leakage [2, 13]: 5%
- LDH % leakage [2, 14]: 5%
- LDH % leakage [2, 15]: 6%
- LDH % leakage ([2]; 75 μM, isolated rat hepatocytes): 7%
- LDH % leakage [2, 16]: 7%
- Fold stimulation of insulin-stimulated lipogenesis ([5]; 1 μM with insulin): 1.2 fold
- Fold stimulation of insulin-stimulated lipogenesis ([5]; 10 μM with insulin): 1.4 fold
- Fold stimulation of insulin-stimulated lipogenesis ([5]; 25 μM with insulin): 1.7 fold

Structure (SMILES): O=C(O)/C=C\C(=O)O.O=C1NC(=O)C(=Cc2ccc3c(c2)CN(c2ccccn2)CCO3)S1 [Compound of Example 8, 5-(4-Pyridin-2-yl-2,3,4,5-tetrahydro-benzo[f][1,4]oxazepin-7-ylmethylene)-thiazolidine-2,4-dione maleate]
- Gluconeogenesis (glucose production) % inhibition ([1]; 10 μM): 9%
- Gluconeogenesis (glucose production) % inhibition ([1]; 50 μM): 13%
- Gluconeogenesis (glucose production) % inhibition ([1]; 100 μM): 45%
- LDH % leakage [2, 8]: No
- Fold stimulation of insulin-stimulated lipogenesis [5, 17]: 1.8 fold
- melting point: 224 to 226 °C

Structure (SMILES): O=C(O)/C=C\C(=O)O.O=C1NC(=O)C(Cc2ccc3c(c2)CN(c2ccccn2)CCO3)S1 (centres unmarked) [Compound of Example 5, 5-(4-Pyridine-2-yl-2,3,4,5-tetrahydro-benzo[f][1,4]oxazepin-7-ylmethyl)-thiazolidine-2,4-dione maleate]
- Percent reduction in blood glucose ([6]; 50 mpk p.o. for 8 days): 28%
- Blood glucose ([6]; 50 mpk p.o., Day 0, STZ diabetic rats): 16.8 ± 0.9 μmols/ml
- Blood glucose ([6]; 50 mpk p.o., Day 3, STZ diabetic rats): 15.9 ± 3.0 μmols/ml
- Blood glucose ([6]; 50 mpk p.o., Day 8, STZ diabetic rats): 14.1 ± 1.99 μmols/ml
- Percent reduction in blood glucose ([6]; 100 mpk p.o. for 8 days): 31%
- Blood glucose ([6]; 100 mpk p.o., Day 0, STZ diabetic rats): 17.0 ± 2.0 μmols/ml
- Blood glucose ([6]; 100 mpk p.o., Day 3, STZ diabetic rats): 16.0 ± 1.09 μmols/ml
- Blood glucose ([6]; 100 mpk p.o., Day 8, STZ diabetic rats): 13.0 ± 0.9 μmols/ml
- PPARγ (Fold activation at 1 μM) [3]: 1.8 fold
- Emax [3, 9]: 12%

Structure (SMILES): COC(=O)C(Cc1ccc2c(c1)CN(c1ccccn1)CCO2)C(=O)OC [Compound of Example 2]
- Fold stimulation of insulin-stimulated lipogenesis [5, 17]: 2 fold
